PubChem BioAssay AID1259408 (Genetic Toxicology Data Bank (GENE-TOX), 2018)
Calls of active or inactive are those of the source. The rule behind the calls is not given here.

Test system: GENE-TOX genotoxicity assays, various organisms and cells
Assay: GENE-TOX mutagenicity studies
Settings: for call: Assay Type: In vivo carcinogenicity studies
[1] = Species/Cell Type: Human lymphocytes, Assay Type: Sister-chromatid exchange (SCE) in vitro, Assay Code: SCL+D, Dose Response: With dose response, Evaluation Type: Evaluation B (Post-1980)
[2] = Species/Cell Type: Human, Assay Type: Sister-chromatid exchange (SCE) in vitro, Assay Code: SC1+D, Dose Response: With dose response, Evaluation Type: Evaluation B (Post-1980)
[3] = Species/Cell Type: Salmonella typhimurium (one or more of the five standard strains: TA98, TA100, TA1535, TA1537, and TA1538), Assay Type: Histidine reverse gene mutation, Ames assay, Assay Code: SALT, Evaluation Type: Evaluation A (Pre-1980)
[4] = Species/Cell Type: Nonhuman, Assay Code: CCG+, Evaluation Type: Evaluation A (Pre-1980)
[5] = Species/Cell Type: Mammalian polychromatic erythrocytes, Assay Type: Micronucleus test, chromosome aberrations, Assay Code: MNTT, Evaluation Type: Evaluation A (Pre-1980)
[6] = Species/Cell Type: Rodents, Sex: Male, Assay Type: Dominant lethal test, Assay Code: DLT-, Evaluation Type: Evaluation A (Pre-1980)
[7] = Species/Cell Type: Saccharomyces cerevisiae, Assay Type: Mitotic recombination or gene conversion, Assay Code: YEH-, Evaluation Type: Evaluation A (Pre-1980)
[8] = Species/Cell Type: Drosophila melanogaster, Assay Type: Sex-linked recessive lethal gene mutation, Assay Code: SRLT, Evaluation Type: Evaluation A (Pre-1980)
[9] = Species/Cell Type: Human diploid fibroblasts, Assay Type: Unscheduled DNA synthesis (UDS) in vitro, DNA effects, Assay Code: UDH-, Evaluation Type: Evaluation A (Pre-1980)
[10] = Species/Cell Type: Nonhuman, Assay Type: Sister-chromatid exchange (SCE) in vitro, Assay Code: SC2-, Evaluation Type: Evaluation B (Post-1980)
[11] = Species/Cell Type: Bacillus subtilis (H17 vs M45), Assay Type: Rec-assay, spot test, DNA effects (bacterial DNA repair), Assay Code: REW-, Evaluation Type: Evaluation A (Pre-1980)
[12] = Species/Cell Type: Human lymphocytes, Assay Type: Sister-chromatid exchange (SCE) in vitro, Assay Code: SCLT, Evaluation Type: Evaluation B (Post-1980)
[13] = Species/Cell Type: Human, Assay Type: Sister-chromatid exchange (SCE) in vitro, Assay Code: SC1T, Evaluation Type: Evaluation B (Post-1980)
[14] = Species/Cell Type: Mammalian polychromatic erythrocytes, Assay Type: Micronucleus test, chromosome aberrations, Assay Code: MNT-, Evaluation Type: Evaluation B (Post-1980)
[15] = Species/Cell Type: Drosophila melanogaster, Assay Type: Aneuploidy, whole sex chromosome loss, chromosome aberrations, Assay Code: DAC-M, Evaluation Type: Evaluation A (Pre-1980)
[16] = Species/Cell Type: Salmonella typhimurium (one or more of the five standard strains: TA98, TA100, TA1535, TA1537, and TA1538), Assay Type: Histidine reverse gene mutation, Ames assay, Assay Code: SAL+, Evaluation Type: Evaluation A (Pre-1980)
[17] = Species/Cell Type: Escherichia coli polA (W3119 vs P3478), Assay Type: Rec-assay, DNA effects (bacterial DNA repair), Assay Code: RE1+, Evaluation Type: Evaluation A (Pre-1980)

C#C[C@]1(OC(C)=O)CC[C@H]2[C@@H]3CCC4=CC(=O)CC[C@@H]4[C@H]3CC[C@@]21C
mutagenic call (Species/Cell Type: Rodents, Sex: Male, Assay Type: Dominant lethal test, Assay Code: DLTT, Evaluation Type: Evaluation A (Pre-1980)): no conclusion

COc1ccccc1O
mutagenic call (Species/Cell Type: Allium cepa, Assay Type: Chromosome aberrations, Assay Code: ALC+, Evaluation Type: Evaluation A (Pre-1980)): active; positive | mutagenic call [1]: active; positive | mutagenic call [2]: active; positive | mutagenic call [3]: no conclusion

C/C=C/c1ccc2c(c1)OCO2
call [4]: active; positive

O=NN1CCNC1=S
mutagenic call [5]: no conclusion | mutagenic call (Species/Cell Type: Nonhuman, Assay Type: Sister-chromatid exchange (SCE) in vitro, Assay Code: SC2+D, Dose Response: With dose response, Evaluation Type: Evaluation B (Post-1980)): active; positive | mutagenic call [6]: inactive; negative

COC(=O)C[C@@H]1Cc2cc3c(-c4c(OC)cc(O)c5c(O)c6c(cc45)C[C@@H](CC(=O)OC)OC6=O)c(OC)cc(O)c3c(O)c2C(=O)O1
mutagenic call [7]: inactive; negative | mutagenic call [3]: no conclusion

COP(=S)(OC)SCn1nnc2ccccc2c1=O
mutagenic call (Species/Cell Type: Bacillus subtilis (H17 vs M45), Assay Type: Rec-assay, spot test, DNA effects (bacterial DNA repair), Assay Code: REWT, Evaluation Type: Evaluation A (Pre-1980)): no conclusion | mutagenic call [8]: no conclusion | mutagenic call (Species/Cell Type: Escherichia coli WP2 UVRA, Assay Type: Tryptophan reverse gene mutation, Assay Code: WPU-*, Activation: With metabolic activation, Evaluation Type: Evaluation A (Pre-1980)): inactive; negative | mutagenic call (Species/Cell Type: Escherichia coli polA (W3119 vs P3478), Assay Type: Rec-assay, DNA effects (bacterial DNA repair), Assay Code: RE1T, Evaluation Type: Evaluation A (Pre-1980)): no conclusion | mutagenic call [9]: inactive; negative | mutagenic call [10]: inactive; negative | mutagenic call (Species/Cell Type: Saccharomyces cerevisiae, Assay Type: Mitotic recombination or gene conversion, Assay Code: YEH+, Evaluation Type: Evaluation A (Pre-1980)): active; positive | mutagenic call [3]: no conclusion

N=c1ccc2nc3ccc(N)cc3sc-2c1
mutagenic call [11]: inactive; negative | mutagenic call [8]: no conclusion | mutagenic call (Species/Cell Type: Saccharomyces cerevisiae, Assay Type: Mitotic recombination or gene conversion, Assay Code: YECT, Evaluation Type: Evaluation A (Pre-1980)): no conclusion

CS(=O)(=O)OCC(O)C(O)COS(C)(=O)=O (stereo not given)
mutagenic call (Species/Cell Type: Allium cepa, Assay Type: Chromosome aberrations, Assay Code: ALCT, Evaluation Type: Evaluation A (Pre-1980)): no conclusion | mutagenic call (Species/Cell Type: Arabidopsis species, Assay Type: Gene mutation, Assay Code: ARM+, Evaluation Type: Evaluation A (Pre-1980)): active; positive | mutagenic call (Species/Cell Type: Vicia faba, Assay Type: Chromosome aberrations, Assay Code: VIC+D, Dose Response: With dose response, Evaluation Type: Evaluation A (Pre-1980)): active; positive

Oc1ccc2c3c(cccc13)CC2
mutagenic call [3]: no conclusion

O=c1cc(O)c2ccccc2[nH]1
mutagenic call (Species/Cell Type: Salmonella typhimurium (one or more of the five standard strains: TA98, TA100, TA1535, TA1537, and TA1538), Assay Type: Histidine reverse gene mutation, Ames assay, Assay Code: SAL+*, Activation: With metabolic activation, Evaluation Type: Evaluation A (Pre-1980)): active; positive

O=CNNc1nc(-c2ccco2)cs1
mutagenic call (Species/Cell Type: Escherichia coli WP2, Assay Type: Tryptophan reverse gene mutation, Assay Code: WP2-, Evaluation Type: Evaluation A (Pre-1980)): inactive; negative | mutagenic call (Species/Cell Type: Escherichia coli WP2 UVRA, Assay Type: Tryptophan reverse gene mutation, Assay Code: WPU-, Evaluation Type: Evaluation A (Pre-1980)): inactive; negative

C/C=C\C(=O)O[C@@H]1C[C@H]2O[C@@H]3C=C(C)[C@@H]4O[C@@H]4[C@]3(C)C1(C)[C@]21CO1
mutagenic call [3]: no conclusion

CN1CCN(CCCN2c3ccccc3S(=O)c3ccccc32)CC1
mutagenic call [12]: no conclusion | mutagenic call [13]: no conclusion

CC(C)C[C@@H](N)[C@H](O)C(=O)N[C@H](C(=O)N[C@H](C(=O)N[C@@H](CC(=O)O)C(=O)O)C(C)C)C(C)C
mutagenic call [13]: no conclusion

Nc1ccc(Oc2ccc(N)c(Cl)c2)cc1Cl
call [4]: active; positive

O=[N+]([O-])O.O=[N+]([O-])O.[Cd+2]
mutagenic call [10]: inactive; negative

COc1ccc(CCN2CCC(Nc3nc4ccccc4n3Cc3ccc(F)cc3)CC2)cc1
mutagenic call [12]: no conclusion | mutagenic call [13]: no conclusion | mutagenic call [14]: inactive; negative

c1ccc2c(c1)[nH]c1cnccc12
mutagenic call [1]: active; positive | mutagenic call [12]: no conclusion | mutagenic call [2]: active; positive | mutagenic call [13]: no conclusion

CCNc1nc(Cl)nc(NCC)n1
mutagenic call (Species/Cell Type: Drosophila melanogaster, Assay Type: Aneuploidy, partial sex chromosome loss, chromosome aberrations, Assay Code: DAPT, Evaluation Type: Evaluation A (Pre-1980)): no conclusion | mutagenic call (Species/Cell Type: Drosophila melanogaster, Assay Type: Aneuploidy, sex chromosome gain, chromosome aberrations, Assay Code: DAGT, Evaluation Type: Evaluation A (Pre-1980)): no conclusion | mutagenic call [15]: inactive; negative | mutagenic call [9]: inactive; negative | mutagenic call (Species/Cell Type: Saccharomyces cerevisiae, Assay Type: Mitotic recombination or gene conversion, Assay Code: YEC-, Evaluation Type: Evaluation A (Pre-1980)): inactive; negative | mutagenic call [7]: inactive; negative | mutagenic call [3]: no conclusion | mutagenic call (Species/Cell Type: Syrian hamster embryo (SA7/SHE) cells, Assay Type: Cell transformation, viral enhanced, Assay Code: CT7+, Evaluation Type: Evaluation A (Pre-1980)): active; positive

Cc1ccc2ccc3c(C)c4ccccc4c4ccc1c2c34
mutagenic call [8]: no conclusion

[Cl][Tb]([Cl])[Cl]
mutagenic call [11]: inactive; negative

CC(=O)OC(c1ccccc1)N(C)N=O (stereo not given)
mutagenic call [16]: active; positive

O=[N+]([O-])c1ccc(-c2nc(N(CCO)CCO)c3ccccc3n2)s1
mutagenic call [3]: no conclusion

NCCCC[C@H](N)C(=O)O
mutagenic call (Species/Cell Type: Human, Sex: Male, Assay Type: Sperm morphology, Assay Code: SPH-, Evaluation Type: Evaluation A (Pre-1980)): inactive; negative

CC(=O)OCCBr
mutagenic call [17]: active; positive

CN(C)CCOc1ccc2c(c1)CC/C(=C\c1ncc([N+](=O)[O-])n1C)C2=O
mutagenic call (Species/Cell Type: Drosophila melanogaster, Assay Type: Sex-linked recessive lethal gene mutation, Assay Code: SRL+, Evaluation Type: Evaluation A (Pre-1980)): active; positive | mutagenic call (Species/Cell Type: Saccharomyces cerevisiae, Assay Type: Mitotic recombination or gene conversion, Assay Code: YEC+, Evaluation Type: Evaluation A (Pre-1980)): active; positive

c1ccc2c(c1)ncn2CN1CCCCC1
mutagenic call (Species/Cell Type: Arabidopsis species, Assay Type: Gene mutation, Assay Code: ARM-, Evaluation Type: Evaluation A (Pre-1980)): inactive; negative

O=C1c2ccccc2NC(c2ccc([N+](=O)[O-])o2)N1O (stereo not given)
mutagenic call [14]: inactive; negative

[Be]
call [4]: active; positive

O=C(O)CC[N+](=O)[O-]
mutagenic call (Species/Cell Type: Fischer rat embryo (RLV/1706) cells, Assay Type: Cell transformation, viral enhanced, Assay Code: CTR+, Evaluation Type: Evaluation A (Pre-1980)): active; positive | call (Species/Cell Type: Nonhuman, Assay Code: CCG-L, Evaluation Type: Evaluation A (Pre-1980)): inactive; negative

OC[C@@H](O)[C@@H](O)[C@H](O)[C@@H](O)CO
mutagenic call [15]: inactive; negative | mutagenic call [8]: no conclusion | mutagenic call [6]: inactive; negative

Cc1ccc(O)c(C)c1
mutagenic call [12]: no conclusion

CCc1cc(C(N)=S)ccn1
mutagenic call [13]: no conclusion

CC[N+](=O)[O-]
mutagenic call [5]: no conclusion

ONc1ccc2c(c1)Cc1ccccc1-2
mutagenic call [8]: no conclusion | mutagenic call [17]: active; positive | mutagenic call [16]: active; positive

CCCCCCCCC1CC1CCCCCCCC(=O)OCCOCCOC (stereo not given)
mutagenic call (Species/Cell Type: Nonhuman, Assay Type: Sister-chromatid exchange (SCE) in vitro, Assay Code: SC2T, Evaluation Type: Evaluation B (Post-1980)): no conclusion

Cc1c2ccccc2c(CO)c2c1ccc1ccccc12
mutagenic call (Species/Cell Type: Chinese hamster lung (V79) cells, Assay Type: Forward gene mutation at the HPRT or ouabain locus, Assay Code: V79+, Evaluation Type: Evaluation A (Pre-1980)): active; positive | call (Species/Cell Type: Nonhuman, Assay Code: CCG+L, Evaluation Type: Evaluation A (Pre-1980)): active; positive
